Key:
[1] = test system: mixed bacterial inoculum for home care (Table 7); test: Challenge test (preservative efficacy), mixed bacterial inoculum, simplified pool (Table 7); assay type: cell-based, Pseudomonas aeruginosa, Staphylococcus aureus
Procedure: (§1) The preservative activity in representative rinse-off and leave-on formulations was evaluated using a modification of the Personal Care Products Council (PCPC—formerly the Cosmetic, Toiletry and Fragrance Association) protocol (Machtiger, et al. 2001. Determination of the Efficacy of Preservation of Non-Eye Area Water Miscible Cosmetic and Toiletry Formulations: Collaborative Study. J of AOAC International. 84:1, 101-109).
(§2) This evaluation was conducted using a four week, two or three-cycle (i.e., two-cycle for personal care and three-cycle for home care applications) microbial preservative efficacy test (i.e., challenge test) at 25° C. to determine the preservative efficacy of each treatment. Phenoxyethanol, benzyl alcohol and pelargonic acid were tested alone and in various combinations. The pelargonic acid used in the testing was purchased from Sigma-Aldrich. Combinations of phenoxyethanol or benzyl alcohol with benchmark multifunctional booster compounds were also tested for comparison. The preservative and booster ingredients were dosed and mixed thoroughly at room temperature into various formulations, specifically different personal care formulations including a lotion (leave-on, Table 1), a micellar water (rinse-off, Table 2), and a body wash formulation (rinse-off, Table 3) and different home care formulations including a manual dishwashing formulation (Table 4) and a liquid laundry detergent formulation (Table 5). […] Carbomers are a commonly used synthetic rheological modifier in personal care products. The formulation below was made by heating the aqueous (A) and oil (B) phases separately to 75-80° C. The oil phase was then poured into the aqueous phase and mixed by a homogenizer at approximately 45° C. The formed oil-in-water emulsion was cooled to room temperature. Triethanolamine and/or diluted sodium hydroxide was used to adjust the final pH to 6.3 or 6.5 (as indicated in the examples below).
(§3) After dosing, the samples were divided into two separate five gram aliquots. One aliquot was inoculated with 50 μl of a diluted bacterial pool, and the second aliquot was inoculated with 50 μl of a diluted fungal pool as described below. Unpreserved product samples were included as a growth control.
(§4) For personal care products, a mixed bacterial inoculum was prepared using 24-hour cultures of the test bacteria (Table 6) grown in trypticase soy broth (TSB). For home care products, a mixed bacterial inoculum was prepared using 24-hour cultures of the test bacteria either from Table 6 (full pool) or Table 7 (simplified pool) grown in trypticase soy broth (TSB). Details are disclosed in the home care examples below. Equal volumes of the bacterial test strains were combined and diluted one to ten in phosphate buffer to obtain an inoculum of approximately 5×10^7 to 5×10^8 colony forming units per ml (cfu/ml). The test samples were inoculated with 1% of the mixed bacterial inoculum. For both personal care and home care products, a mixed fungal inoculum was prepared using cell suspensions of the yeast Candida albicans ATCC #10231 and the mold Aspergillus brasiliensis ATCC #16404 in phosphate buffer. Equal volumes of the fungal test strains were combined and diluted one to ten with phosphate buffer to obtain an inoculum of approximately 5×10^6 to 5×10^7 cfu/ml. The test samples were inoculated with 1% of the mixed fungal inoculum.
(§5) For personal care products, the samples were subjected to two microbial challenges at time zero and inoculated a second time after seven days. For home care products, the samples were subjected to three microbial challenges at time zero and inoculated a second and third time after seven and fourteen days, respectively. The number of microorganisms added to each sample was determined by a standard Most Probable Number (MPN) determination in Trypticase Soy Broth (TSB) for bacteria and Potato Dextrose Broth (PDB) for fungi. Samples were incubated at 25° C. for the test duration of four weeks.

[2] = test system: bacteria (Table 6 pool) and fungi; test: Challenge test, overall result (full bacteria pool and fungi); assay type: cell-based
Procedure: as §1, §2, §3, §4, §5

[3] = ZenBio Cupric Ion Chelating (CIC) Assay; assay type: physicochemical; settings: calculated from a EDTA calibration curve, Pelargonic Acid at 775 μM
Procedure: The chelation property of the pelargonic acid was measured by using the ZenBio Cupric Ion Chelating (CIC) Assay (Cat #AOX-16). The assay measured the capacity of the pelargonic acid to chelate free cupric ions in solution, thereby inhibiting Cu(II) binding to pyrocatechol violet (PV) for generating a highly colored complex. The absorbance of the Cupric-PV complex was measured at a wavelength of 632 nm. The cupric ion chelating activity was determined as the percent of total PV over the Cu(II) binding. Ethylenediaminetetraacetic acid (EDTA), a well-known chelating agent, was used as a positive control. A series of EDTA with 7 different concentrations from 0 to 1000 μM were prepared and their corresponding absorbance measured and used as the calibration curve (Cupric ion chelating (%) vs. EDTA concentration). Percent cupric ion chelating was determined following the following calculations and Equation 1. The background absorbance value by averaging the absorbance values of the three background wells (no CuSO4 or sample). The average background absorbance was then subtracted from all the sample absorbance values. The maximal absorbance value (Absmax) was determined by averaging the absorbance values of the three wells containing CuSO4, PV and assay buffer. Abstest in Equation 1 is the absorbance of the test sample.
The calibration curve (Cupric ion chelating (%) vs. EDTA concentration) was fit by using a polynomial curve after log 10 transforming the concentrations (R2>0.98).

[4] = test system: mixed fungal inoculum: Candida albicans ATCC #10231 and Aspergillus brasiliensis ATCC #16404; test: Challenge test (preservative efficacy), mixed fungal inoculum; assay type: cell-based
Procedure: as §1, §2, §3, §4, §5

[5] = test system: mixed bacterial inoculum (Table 6); test: Challenge test (preservative efficacy), mixed bacterial inoculum, full pool (Table 6); assay type: cell-based
Procedure: as §1, §2, §3, §4, §5

[6] = test system: bacteria (Table 7 pool) and fungi; test: Challenge test, overall result (simplified bacteria pool and fungi); assay type: cell-based
Procedure: as §1, §2, §3, §4, §5

[7] = liquid laundry detergent, pH 7.5, Example 1H, dosed 0.5 wt %
[8] = liquid laundry detergent, pH 7.5, Example 1H, dosed 1.0 wt %
[9] = lotion with carbomer, pH 6.3, Example 1A, dosed 0.4 wt %
[10] = lotion with carbomer, pH 6.5, Example 1I, dosed 0.4 wt %
[11] = lotion with carbomer, pH 6.5, Example 1I, total dosing 0.8 wt %
[12] = micellar water, pH 6.0, Example 1B, dosed 0.3 wt %
[13] = micellar water, pH 6.0, Example 1C, dosed 0.3 wt %
[14] = liquid laundry detergent, pH 7.5, Example 1G, dosed 0.5 wt %
[15] = liquid laundry detergent, pH 7.5, Example 1G, dosed 1.0 wt %
[16] = manual dishwashing formulation, pH 5.5, Example 1F, dosed 0.5 wt %
[17] = manual dishwashing formulation, pH 5.5, Example 1F, dosed 1.0 wt %

In the case of `OCCOc1ccccc1` [Phenoxyethanol (POE), 2-phenoxyethan-1-ol], the “Bacteria growth rating Result” value ([1]; liquid laundry detergent, pH 7.5, simplified bacteria pool, Example 1G, dosed 0.5 wt %) is reported as “Pass (growth rating score caused by bacteria of 1 or less at days 21-28 of the testing period)”, the “Bacteria growth rating Result” value ([1]; liquid laundry detergent, pH 7.5, simplified bacteria pool, Example 1G, dosed 1.0 wt %) is reported as “Pass (growth rating score caused by bacteria of 1 or less at days 21-28 of the testing period)” and the “Bacteria growth rating Result” value ([1]; manual dishwashing formulation, pH 5.5, simplified bacteria pool, Example 1F, dosed 0.5 wt %) is reported as “Fail (growth rating score caused by bacteria of 2 or more at days 21-28 of the testing period)”. The “Bacteria growth rating Result” value ([1]; manual dishwashing formulation, pH 5.5, simplified bacteria pool, Example 1F, dosed 1.0 wt %) was “Fail (growth rating score caused by bacteria of 2 or more at days 21-28 of the testing period)”, the “Overall Result” value [2, 7] was “Fail” and the “Overall Result” value [2, 8] was “Fail”. The “Overall Result” value [2, 9] was “Fail”, the “Overall Result” value [2, 10] was “Fail” and the “Overall Result” value [2, 11] was “Pass”. The “Overall Result” value [2, 12] was “Fail”, the “Overall Result” value [2, 13] was “Fail” and the “Calculated EDTA equivalent” value ([3]; listed as Phenoxyethanol) was roughly 0 µM. For the same compound, the “Calculated EDTA equivalent” value ([3]; listed as phenoxyethanol) was ~ 0 μM, the “Fungi growth rating Result” value [4, 14] was “Fail (growth rating score caused by fungi of more than 2 at days 21-28 of the testing period)” and the “Fungi growth rating Result” value [4, 15] was “Fail (growth rating score caused by fungi of more than 2 at days 21-28 of the testing period)”. For the same compound, the “Fungi growth rating Result” value [4, 7] was “Fail (growth rating score caused by fungi of more than 2 at days 21-28 of the testing period)”, the “Fungi growth rating Result” value [4, 8] was “Fail (growth rating score caused by fungi of more than 2 at days 21-28 of the testing period)” and the “Fungi growth rating Result” value [4, 9] was “Fail (growth rating score caused by fungi of more than 2 at days 21-28 of the testing period)”. For the same compound, the “Fungi growth rating Result” value [4, 10] was “Fail (growth rating score caused by fungi of more than 2 at days 21-28 of the testing period)”, the “Fungi growth rating Result” value [4, 11] was “Pass (growth rating score caused by fungi of 2 or less at days 21-28 of the testing period)” and the “Fungi growth rating Result” value ([4]; lotion, pH 6.5, Example 4, dosed 0.8 wt %) was “Pass (growth rating score caused by fungi of 2 or less at days 21-28 of the testing period)”. For the same compound, the “Fungi growth rating Result” value ([4]; manual dishwash formulation, pH 6.5, Example 4, dosed 0.8 wt %) was “Fail (growth rating score caused by fungi of more than 2 at days 21-28 of the testing period)”, the “Fungi growth rating Result” value [4, 16] was “Fail (growth rating score caused by fungi of more than 2 at days 21-28 of the testing period)” and the “Fungi growth rating Result” value [4, 17] was “Fail (growth rating score caused by fungi of more than 2 at days 21-28 of the testing period)”. For the same compound, the “Fungi growth rating Result” value [4, 12] was “Fail (growth rating score caused by fungi of more than 2 at days 21-28 of the testing period)”, the “Fungi growth rating Result” value [4, 13] was “Fail (growth rating score caused by fungi of more than 2 at days 21-28 of the testing period)” and the “Bacteria growth rating Result” value ([5]; liquid laundry detergent, pH 7.5, full bacteria pool, Example 1H, dosed 0.5 wt %) was “Fail (growth rating score caused by bacteria of 2 or more at days 21-28 of the testing period)”. The “Bacteria growth rating Result” value ([5]; liquid laundry detergent, pH 7.5, full bacteria pool, Example 1H, dosed 1.0 wt %) was “Pass (growth rating score caused by bacteria of 1 or less at days 21-28 of the testing period)”, the “Bacteria growth rating Result” value [5, 9] was “Fail (growth rating score caused by bacteria of 2 or more at days 21-28 of the testing period)” and the “Bacteria growth rating Result” value ([5]; lotion with carbomer, pH 6.3, Example 1D, dosed 0.4 wt %) was “Fail (growth rating score caused by bacteria of 2 or more at days 21-28 of the testing period)”. For the same compound, the “Bacteria growth rating Result” value ([5]; lotion with carbomer, pH 6.3, Example 1D, dosed 0.8 wt %) was “Pass (growth rating score caused by bacteria of 1 or less at days 21-28 of the testing period)”, the “Bacteria growth rating Result” value [5, 10] was “Fail (growth rating score caused by bacteria of 2 or more at days 21-28 of the testing period)” and the “Bacteria growth rating Result” value [5, 11] was “Pass (growth rating score caused by bacteria of 1 or less at days 21-28 of the testing period)”. For the same compound, the “Bacteria growth rating Result” value ([5]; micellar water, pH 6.0, bacteria inoculation ~10^7 cfu/ml, Example 1B, dosed 0.3 wt %) was “Pass (growth rating score caused by bacteria of 1 or less at days 21-28 of the testing period)”, the “Bacteria growth rating Result” value ([5]; micellar water, pH 6.0, bacteria inoculation ~10^8 cfu/ml, Example 1C, dosed 0.3 wt %) was “Fail (growth rating score caused by bacteria of 2 or more at days 21-28 of the testing period)” and the “Overall Result” value [6, 14] was “Fail”. For the same compound, the “Overall Result” value [6, 15] was “Fail”, the “Overall Result” value [6, 16] was “Fail” and the “Overall Result” value [6, 17] was “Fail”.

— patent US20260191192A1, “ANTIMICROBIAL COMPOSITIONS COMPRISING PELARGONIC ACID” (LANXESS Corporation, priority 2023, published 2026)
